# From paper PMC10739250 (ACS Bio & Med Chem Au, 2023)
# Experiments:
# physchem [1] = assay: physchem
# in vitro [2] = conditions: human, hepatocytes
# [3] = test system: SARS-CoV-2/Canada/VIDO 01/2020; type: cell-based; conditions: read-out: EC50 in the presence of the efflux inhibitor CP-100356
# [4] = rat hepatocytes, 0.5 ×10^6 cells/mL
# [5] = human, pH 7.4
# in vitro [6] = conditions: hamster, hepatocytes
# in vitro [7] = conditions: human, microsomes
# physchem [8] = conditions: thermodynamic from solid
structure (smiles),measurement,setting,value
"CC(C)(C)[C@H](NC(=O)C(F)(F)F)C(=O)N1C[C@H]2[C@@H]([C@H]1C(=O)N[C@H](C#N)C[C@@H]1CCNC1=O)C2(C)C [Compound 1, nirmatrelvir]",logD,physchem [1],1.86
same,half-life,in vitro [2],> 434 min
same,EC50,[3],200 nM
same,"hepatocyte stability, t1/2, rat",[4],244.7 min
same,amount of metabolite Major,[5],100
same,amount of metabolite Minor A,[5],5.1 ± 0.8
same,amount of metabolite Minor B,[5],2.3 ± 0.4
same,increase of minor metabolites A and B on deuteration,[5],210%
same,"minor sites (Minor A and Minor B), share of total metabolites",[5],less than 10%
same,half-life,in vitro [6],57.4 min
same,half-life,in vitro [7],40.2 min
same,solubility thermodynamic,physchem [8],4.79 mM
